Here are results for 22 compounds from patent US12516064B2, “Tetrahydropyridopyrimidines and related analogs for inhibiting YAP/TAZ-TEAD” (THE KATHOLIEKE UNIVERSITEIT LEUVEN, priority 2022, dated 2026).

Holding throughout (assay type): cell-based
Assay [1] concerns YAP/TAZ-TEAD transcription. The experiment in a line: Reporter gene assay for measuring the inhibition of YAP/TAZ-TEAD transcription. As to conditions: Homo sapiens, HEK-293T; Hek293T cells transiently transfected with TEAD-responsive element luciferase reporter; 24 hours incubation. The protocol:
Hek293T cells are cultured in DMEM supplemented with 10% fetal bovine serum, Sodium pyruvate, Sodium bicarbonate, L-glutamine. The cells are harvested and transiently transfected with TEAD-responsive element luciferase reporter. Transfected cells are plated in 384-wells plate containing pre-diluted compounds. After 24 hours incubation at 37° C./5% CO2, assay plates were cooled down to RT and levelled to an equal volume per well, prior to the addition of 25 uL luciferase substrate SteadyLite (Perkin Elmer)/well. The plate was shaken for 10 min at 600 rpm, centrifuged for 1 min at 500 rpm and measured with an Envision reader (PerkinElmer). The amount of relative light units produced by the TEAD reporter is used to calculated percent of inhibition.
The percent of reporter inhibition was calculated in the presence of a positive control inhibitor (100% inhibition) versus a condition with the presence of the vehicle basal activity of the reporter (0% inhibition). The ability of a test compound to inhibit this activity was determined as: Percentage inhibition=[1−((RLU determined in the presence of vehicle−RLU determined for sample with test compound present) divided by (RLU determined in the presence of vehicle−RLU determined for sample with positive control inhibitor))]*100 The activities of example compounds tested are depicted in Table 8. The activity ranges A, B and C refer to IC50 values in the reporter gene assay as follows: “A”: EC50<1 μM; “B”: 1 μM≤EC50≤3.0 μM and “C”: EC50>3.0 μM, NT=not tested.
(Reporter assays use an easily measured gene product as a stand-in for the process of interest.)

In another assay the test system is NCI-H226. The experiment in a line: Mesothelioma cell line proliferation assay (NCI-H226). The settings on record: Homo sapiens, 144 h; NCI-H226 cells; 6 days with compound; cell viability by ATPlite. The protocol: (§1) Mesothelioma cell lines, NCI-H226 and NCI-H2052 (all sourced from the ATCC cell culture collection) are plated in 96-well plates (Corning® 96 Well White Polystyrene Microplate clear flat bottom, white polystyrene (TC-Treated)), at 1500 cells/well in full medium (RPMI 1640 ATCC modification with L-glutamine, HEPES, Phenol Red, Sodium Pyruvate, High glucose, Low sodium bicarbonate and 10% fetal bovine serum). Cells are incubated overnight at 37° C. in an incubator with 5% CO2. Then compounds, dissolved in DMSO, are added in dose-response. Cells are incubated with compound dilutions for another 6 days at 37° C. in an incubator with 5% CO2. Cell viability is quantitated using the ATPlite kit (Perkin-Elmer) and the luminescence is read-out using an Envision instrument (Perkin-Elmer). The amount of relative light units produced using the ATPlite kit is used to calculated percent of inhibition.
(§2) The activities of some example compounds are depicted in Table 9. The activity ranges A, B and C refer to EC50 values in the mesothelioma cell line proliferation assay as described as follows: “A”: EC50<1 μM; “B”: 1 μM≤EC50≤10 μM and “C”: EC50>10 μM; NT: not tested.
On the technique in general: ATP-based viability assays read luminescence as a measure of living cells.

The next assay relates to NCI-H2052. In words: Mesothelioma cell line proliferation assay (NCI-H2052). The settings on record: Homo sapiens, 144 h; NCI-H2052 cells; 6 days with compound; cell viability by ATPlite. The protocol:
as §1, §2

A value given as a limit tells only on which side of the number the result lay.

On to `C=CC(=O)N1CCc2c(nc(Cc3cccc(F)c3)nc2-c2ccn(C)n2)C1` [Cpd. No. 43, 1-(2-(3-fluorobenzyl)-4-(1-methyl-1H-pyrazol-3-yl)-5,8-dihydropyrido[3,4-d]pyrimidin-7(6H)-yl)prop-2-en-1-one], for which the values for the EC50 (in assay [1]; with NCI-H226; in the assay with NCI-H2052) were below 1000 nM, below 1000 nM and 1000 to 10000 nM, respectively.
As to `Cn1ccc(-c2nc(-c3ccc(C(F)(F)F)cc3)nc3c2CCN(C(=O)C2CO2)C3)n1` (centres unmarked) [Cpd. No. 88, (4-(1-methyl-1H-pyrazol-3-yl)-2-(4-(trifluoromethyl)phenyl)-5,8-dihydropyrido[3,4-d]pyrimidin-7(6H)-yl)(oxiran-2-yl)methanone], the EC50 was below 1000 nM in assay [1], below 1000 nM in the assay with NCI-H226 and 1000 to 10000 nM in the assay with NCI-H2052.
Consider `CCC(=O)N1CCc2c(nc(C3CCC(F)(F)CC3)nc2-c2ccn(C)n2)C1` [Cpd. No. 90, 1-(2-(4,4-difluorocyclohexyl)-4-(1-methyl-1H-pyrazol-3-yl)-5,8-dihydropyrido[3,4-d]pyrimidin-7(6H)-yl)propan-1-one], for which the EC50 in assay [1] is 1000 to 3000 nM; with NCI-H226, above 10000 nM; in the assay on NCI-H2052, above 10000 nM.
With `C=CC(=O)N1Cc2nc(Cc3ccccc3)nc(-c3ccn(C)n3)c2C1` [Cpd. No. 20, 1-(2-benzyl-4-(1-methyl-1H-pyrazol-3-yl)-5,7-dihydro-6H-pyrrolo[3,4-d]pyrimidin-6-yl)prop-2-en-1-one], the EC50 in assay [1] was below 1000 nM; in the assay with NCI-H226, below 1000 nM; with NCI-H2052 it was 1000 to 10000 nM.
Take `CC#CC(=O)N1CCc2c(nc(C3CCC(F)(F)CC3)nc2-c2ccn(C)n2)C1` [Cpd. No. 94, 1-(2-(4,4-difluorocyclohexyl)-4-(1-methyl-1H-pyrazol-3-yl)-5,8-dihydropyrido[3,4-d]pyrimidin-7(6H)-yl)but-2-yn-1-one]: the EC50 in assay [1] was below 1000 nM; in the assay on NCI-H226, below 1000 nM; in the assay on NCI-H2052, above 10000 nM.
For the compound `C=CC(=O)N1CCc2c(nc(-c3ccc(C(F)(F)F)cc3)nc2-c2ccn(CCOC)n2)C1` [Cpd. No. 73, 1-(4-(1-(2-methoxyethyl)-1H-pyrazol-3-yl)-2-(4-(trifluoromethyl)phenyl)-5,8-dihydropyrido[3,4-d]pyrimidin-7(6H)-yl)prop-2-en-1-one], the figures for the EC50 (in assay [1]; with NCI-H226; in the assay with NCI-H2052) were below 1000 nM, below 1000 nM and 1000 to 10000 nM, respectively.
For `C=CC(=O)N1CCc2c(nc(Cc3ccccc3)nc2-c2ccn(Cc3cccnc3)n2)C1` [Cpd. No. 35, 1-(2-benzyl-4-(1-(pyridin-3-ylmethyl)-1H-pyrazol-3-yl)-5,8-dihydropyrido[3,4-d]pyrimidin-7(6H)-yl)prop-2-en-1-one], the EC50 in assay [1] was below 1000 nM; in the assay with NCI-H226, below 1000 nM; in the assay with NCI-H2052, 1000 to 10000 nM.
Consider `C=CC(=O)N1CCc2c(nc(-c3cccc(C(F)(F)F)c3)nc2-c2ccn(C)n2)C1` [Cpd. No. 55, 1-(4-(1-methyl-1H-pyrazol-3-yl)-2-(3-(trifluoromethyl)phenyl)-5,8-dihydropyrido[3,4-d]pyrimidin-7(6H)-yl)prop-2-en-1-one], for which the results for the EC50 (in assay [1]; in the assay with NCI-H226; in the assay with NCI-H2052) were below 1000 nM, below 1000 nM and 1000 to 10000 nM, respectively.
Turning to `C=CC(=O)N1CCc2c(nc(-c3ccc(F)cc3)nc2-c2ccn(C)n2)C1` [Cpd. No. 51, 1-(2-(4-fluorophenyl)-4-(1-methyl-1H-pyrazol-3-yl)-5,8-dihydropyrido[3,4-d]pyrimidin-7(6H)-yl)prop-2-en-1-one], the values for the EC50 (in assay [1]; in the assay with NCI-H226; with NCI-H2052) were below 1000 nM, below 1000 nM and above 10000 nM, respectively.
Regarding `C=C(F)C(=O)N1CCc2c(nc(-c3ccc(C(F)(F)F)cc3)nc2-c2ccn(C)n2)C1` [Cpd. No. 71, 2-fluoro-1-(4-(1-methyl-1H-pyrazol-3-yl)-2-(4-(trifluoromethyl)phenyl)-5,8-dihydropyrido[3,4-d]pyrimidin-7(6H)-yl)prop-2-en-1-one], the results for the EC50 (in assay [1]; in the assay with NCI-H226; with NCI-H2052) were below 1000 nM, below 1000 nM and above 10000 nM, respectively.
For the compound `C=CC(=O)N1CCc2c(nc(-c3ccc(F)c(F)c3)nc2-c2ccn(C)n2)C1` [Cpd. No. 53, 1-(2-(3,4-difluorophenyl)-4-(1-methyl-1H-pyrazol-3-yl)-5,8-dihydropyrido[3,4-d]pyrimidin-7(6H)-yl)prop-2-en-1-one], the EC50 was below 1000 nM in assay [1], below 1000 nM in the assay on NCI-H226 and 1000 to 10000 nM in the assay on NCI-H2052.
Consider `C=CC(=O)N1CCc2c(nc(-c3ccc(C(F)(F)F)cc3)nc2-c2cnn(C)n2)C1` [Cpd. No. 92, 1-(4-(2-methyl-2H-1,2,3-triazol-4-yl)-2-(4-(trifluoromethyl)phenyl)-5,8-dihydropyrido[3,4-d]pyrimidin-7(6H)-yl)prop-2-en-1-one], for which the EC50 was below 1000 nM in assay [1], below 1000 nM with NCI-H226 and 1000 to 10000 nM in the assay on NCI-H2052.
For `C=CC(=O)N1CCc2c(nc(-c3ccccc3)nc2-c2ccn(C)n2)C1` [Cpd. No. 39, 1-(4-(1-methyl-1H-pyrazol-3-yl)-2-phenyl-5,8-dihydropyrido[3,4-d]pyrimidin-7(6H)-yl)prop-2-en-1-one], the figures for the EC50 (in assay [1]; with NCI-H226; in the assay on NCI-H2052) were below 1000 nM, below 1000 nM and 1000 to 10000 nM, respectively.
On to `C=CC(=O)N1CCc2c(nc(-c3ccc(C(F)(F)F)cc3)nc2-c2cn(C)nn2)C1` [Cpd. No. 87, 1-(4-(1-methyl-1H-1,2,3-triazol-4-yl)-2-(4-(trifluoromethyl)phenyl)-5,8-dihydropyrido[3,4-d]pyrimidin-7(6H)-yl)prop-2-en-1-one], for which the values for the EC50 (in assay [1]; with NCI-H226; in the assay on NCI-H2052) were below 1000 nM, 1000 to 10000 nM and 1000 to 10000 nM, respectively.
In turn, `C=CC(=O)NC1CCc2c(nc(-c3ccccc3)nc2-c2ccn(Cc3cccnc3)n2)C1` (centres unmarked) [Cpd. No. 11, N-(2-phenyl-4-(1-(pyridin-3-ylmethyl)-1H-pyrazol-3-yl)-5,6,7,8-tetrahydroquinazolin-7-yl)acrylamide] came in with an EC50 in assay [1] of 1000 to 3000 nM.
`Cn1ccc(-c2nc(Cc3ccccc3)nc3c2CCN(S(C)(=O)=O)C3)n1` [Cpd. No. 34, 2-benzyl-4-(1-methyl-1H-pyrazol-3-yl)-7-(methylsulfonyl)-5,6,7,8-tetrahydropyrido[3,4-d]pyrimidine] yielded an EC50 in assay [1] above 3000 nM.
Same read-out and setting: the figure for `Cn1ccc(-c2nc(-c3ccccc3)nc3c2CC(NS(C)(=O)=O)CC3)n1` (centres unmarked) [Cpd. No. 4, N-(4-(1-methyl-1H-pyrazol-3-yl)-2-phenyl-5,6,7,8-tetrahydroquinazolin-6-yl)methanesulfonamide] is above 3000 nM; for `CNS(=O)(=O)CCN1Cc2nc(-c3ccccc3)nc(-c3ccn(Cc4cccnc4)n3)c2C1` [Cpd. No. 31, N-methyl-2-(2-phenyl-4-(1-(pyridin-3-ylmethyl)-1H-pyrazol-3-yl)-5,7-dihydro-6H-pyrrolo[3,4-d]pyrimidin-6-yl)ethane-1-sulfonamide] it is 1000 to 3000 nM; for `CCC(=O)N1CCc2c(nc(-c3ccccc3)nc2-c2ccn(C)n2)C1` [Cpd. No. 40, 1-(4-(1-methyl-1H-pyrazol-3-yl)-2-phenyl-5,8-dihydropyrido[3,4-d]pyrimidin-7(6H)-yl)propan-1-one] it is 1000 to 3000 nM.
In turn, `CS(=O)(=O)N1CCc2c(nc(Cc3ccccc3)nc2-c2ccn(Cc3cccnc3)n2)C1` [Cpd. No. 37, 2-benzyl-7-(methylsulfonyl)-4-(1-(pyridin-3-ylmethyl)-1H-pyrazol-3-yl)-5,6,7,8-tetrahydropyrido[3,4-d]pyrimidine] yielded an EC50 in assay [1] above 3000 nM.
In assay [1], `CCC(=O)N1CCc2c(nc(Cc3ccc(C(F)(F)F)cc3)nc2-c2ccn(C)n2)C1` [Cpd. No. 47, 1-(4-(1-methyl-1H-pyrazol-3-yl)-2-(4-(trifluoromethyl)benzyl)-5,8-dihydropyrido[3,4-d]pyrimidin-7(6H)-yl)propan-1-one] displayed an EC50 above 3000 nM.
For `C=CC(=O)N1CCc2c(nc(-c3ccccc3)nc2-c2ccnn2C)C1` [Cpd. No. 62, 1-(4-(1-methyl-1H-pyrazol-5-yl)-2-phenyl-5,8-dihydropyrido[3,4-d]pyrimidin-7(6H)-yl)prop-2-en-1-one], in assay [1], the EC50 fell in the range of 1000 to 3000 nM.

A word on the EC50: it is the concentration that produces a half-maximal response.
